These results are taken from PubChem BioAssay AID192 (DTP/NCI, 2004).

The assay deals with BDF1 mice, B16 melanoma ip, median survival T/C. In words: NCI In Vivo Anticancer Drug Screen. Data for tumor model B16 Melanoma (intraperitoneal) in B6D2F1 (BDF1) mice. The settings on record: endpoint: median survival time, higher = longer survival. An outline of the steps:
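Read-out: survival or tumor size, given as treated/control ratio. Controls received vehicle only; animals bore transplantable tumors.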

[1] abbreviates: dose: 50.0 mg/kg/injection, schedule: Q01DX009 (ip), vehicle: saline with Tween-80.
The mark [2] stands for this setting: dose: 100.0 mg/kg/injection, schedule: Q01DX009 (ip), vehicle: saline with Tween-80.
Setting [3] is: dose: 200.0 mg/kg/injection, schedule: Q01DX009 (ip), vehicle: saline with Tween-80.
[4] abbreviates: dose: 400.0 mg/kg/injection, schedule: Q01DX009 (ip), vehicle: saline with Tween-80.
Where [5] appears, read: dose: 25.0 mg/kg/injection, schedule: Q01DX009 (ip), vehicle: saline.
Where [6] appears, read: dose: 50.0 mg/kg/injection, schedule: Q01DX009 (ip), vehicle: saline.
Setting [7] is: dose: 50.0 mg/kg/injection, schedule: Q01DX009 (ip), vehicle: Klucel (hydroxypropylcellulose) (HPC).
Setting [8] is: dose: 100.0 mg/kg/injection, schedule: Q01DX009 (ip), vehicle: Klucel (hydroxypropylcellulose) (HPC).
[9] abbreviates: dose: 1.56 mg/kg/injection, schedule: Q01DX009 (ip), vehicle: saline with Tween-80.
Setting [10] is: dose: 100.0 mg/kg/injection, schedule: Q04DX003 (ip), vehicle: Klucel (hydroxypropylcellulose) (HPC).
Setting [11] is: dose: 200.0 mg/kg/injection, schedule: Q04DX003 (ip), vehicle: Klucel (hydroxypropylcellulose) (HPC).
Where [12] appears, read: dose: 400.0 mg/kg/injection, schedule: Q04DX003 (ip), vehicle: Klucel (hydroxypropylcellulose) (HPC).
The mark [13] stands for this setting: dose: 100.0 mg/kg/injection, schedule: Q01DX009 (ip), vehicle: saline.
Setting [14] is: dose: 200.0 mg/kg/injection, schedule: Q01DX009 (ip), vehicle: saline.
The mark [15] stands for this setting: dose: 400.0 mg/kg/injection, schedule: Q01DX009 (ip), vehicle: saline.
[16] abbreviates: dose: 25.0 mg/kg/injection, schedule: Q01DX009 (ip), vehicle: Klucel (hydroxypropylcellulose) (HPC).
The mark [17] stands for this setting: dose: 200.0 mg/kg/injection, schedule: Q01DX009 (ip), vehicle: Klucel (hydroxypropylcellulose) (HPC).
The mark [18] stands for this setting: dose: 400.0 mg/kg/injection, schedule: Q01DX009 (ip), vehicle: Klucel (hydroxypropylcellulose) (HPC).

The structures appear in SMILES notation. Several values for one entry are separate records, joined by “and”; a condition that tells them apart may be missing. Identical values can stand only once. Toxic doses and inconclusive results are not listed.

`CN(C)CCCN1c2ccc(O)cc2Sc2ccc(Cl)cc21`: the T/C runs as follows: (dose: 3.1 mg/kg/injection, schedule: Q01DX009 (ip), vehicle: other) 92 % of control; under setting [1], 117 % of control; under setting [2], 124 % of control.

In the case of `CC(=O)ON(C(C)=O)c1ccc(C(N)=O)cc1`, the T/C by setting is: (dose: 25.0 mg/kg/injection, schedule: Q01DX009 (ip), vehicle: saline with Tween-80) 91 % of control; under setting [1], 89 % of control; under setting [2], 86 % of control; under setting [3], 88 % of control; under setting [4], 94 % of control.

Consider `[Cl][Pt+2][Cl].[NH-]CC1(C[NH-])CCCCC1`, for which the T/C was 190 % of control (dose: 1.5 mg/kg/injection, schedule: Q01DX009 (ip), vehicle: saline); 208 % of control (dose: 3.0 mg/kg/injection, schedule: Q01DX009 (ip), vehicle: saline); 208 % of control (dose: 6.0 mg/kg/injection, schedule: Q01DX009 (ip), vehicle: saline).

Turning to `C/C=C/c1ccc(OC(C)=O)c(OC)c1`, the T/C by setting is: under setting [2], 106 % of control; under setting [3], 97 % of control; under setting [4], 100 % of control.

In the case of `O=C(O)c1ccccc1C(=O)Nc1ccc(Cl)cc1`, the T/C is 105 % of control under setting [2] and 94 % of control under setting [3].

Consider `C[C@@H]1CN1C1=CC(=O)C(N2C[C@H]2C)=CC1=O`, for which the T/C (dose: 0.25 mg/kg/injection, schedule: Q01DX009 (ip), vehicle: saline) is 104 % of control and the T/C (dose: 0.5 mg/kg/injection, schedule: Q01DX009 (ip), vehicle: saline) is 95 % of control.

Turning to `COc1cccc2c1C(=O)c1c(O)c3c(c(O)c1C2=O)C[C@@](O)(C(C)=O)C[C@@H]3OC1CC(NC(C)=O)C(O)C(C)O1` (stereo partly drawn), the T/C reads like this: (dose: 6.25 mg/kg/injection, schedule: Q01DX009 (ip), vehicle: saline) 169 % of control; (dose: 12.5 mg/kg/injection, schedule: Q01DX009 (ip), vehicle: saline) 198 % of control; under setting [5], 308 % of control; under setting [6], 227 % of control.

Take `O=C(NC(CS)C(=O)O)OCc1ccccc1` (stereo not drawn): the T/C is, setting by setting: under setting [7], 94 % of control; under setting [8], 94 % of control.

Turning to `CCNc1nc(NC(C)C)nc(SC)n1`, the T/C was 117 % of control under setting [1], 106 % of control under setting [2] and 104 % of control under setting [3].

Regarding `CC(=O)O.[Pb]`, the T/C is, setting by setting: under setting [9], 95 % of control; (dose: 3.13 mg/kg/injection, schedule: Q01DX009 (ip), vehicle: saline with Tween-80) 95 % of control; (dose: 6.25 mg/kg/injection, schedule: Q01DX009 (ip), vehicle: saline with Tween-80) 95 % of control; (dose: 12.5 mg/kg/injection, schedule: Q01DX009 (ip), vehicle: saline with Tween-80) 88 % of control.

For the compound `Cc1cc(C)cc(OC(=O)Nc2ccccc2Cl)c1`, the T/C under setting [10] was 96 % of control, the T/C under setting [11] is 96 % of control and the T/C under setting [12] was 106 % of control.

Regarding `CN1C(=O)OC(C)(C)C1=O`, the T/C is 95 % of control (dose: 0.78 mg/kg/injection, schedule: Q04DX003 (ip), vehicle: saline); 100 % of control (dose: 1.56 mg/kg/injection, schedule: Q04DX003 (ip), vehicle: saline); 105 % of control (dose: 3.12 mg/kg/injection, schedule: Q04DX003 (ip), vehicle: saline); 105 % of control (dose: 6.25 mg/kg/injection, schedule: Q04DX003 (ip), vehicle: saline); 100 % of control (dose: 12.5 mg/kg/injection, schedule: Q04DX003 (ip), vehicle: saline); 110 % of control under setting [5]. In addition, the T/C under setting [6] is 100 % of control, the T/C under setting [13] was 100 % of control, the T/C under setting [14] is 97 % of control and the T/C under setting [15] was 94 % of control.

With `CC1(C)NC(=O)C(/C=C/c2ccccc2)O1` (stereo not drawn), the T/C was 96 % of control (dose: 6.25 mg/kg/injection, schedule: Q01DX009 (ip), vehicle: Klucel (hydroxypropylcellulose) (HPC)); 109 % of control (dose: 12.5 mg/kg/injection, schedule: Q01DX009 (ip), vehicle: Klucel (hydroxypropylcellulose) (HPC)); 121 % of control under setting [16]; 112 % of control under setting [8]; 86 % of control under setting [17].

As to `CCCCOC(=O)C(C)OC(=O)CCC` (stereo not drawn), the T/C runs as follows: under setting [16], 112 % of control; under setting [7], 108 % of control; under setting [8], 104 % of control; under setting [17], 122 % of control.

Take `Nc1nc(Nc2ccccc2)nc(C(=O)O)n1`: the T/C was 100 % of control under setting [10], 97 % of control under setting [11] and 92 % of control under setting [12].

With `C1CCN(CCC2CCCCN2)CC1` (stereo not drawn), the T/C runs as follows: under setting [5], 106 % of control; under setting [6], 100 % of control.

As to `CCOc1ccccc1NC(=O)Nc1ccccc1`, the T/C under setting [8] was 102 % of control, the T/C under setting [17] is 103 % of control and the T/C under setting [18] was 99 % of control.

In the case of `NN1C(=O)c2ccc3c4c(ccc(c24)C1=O)CC3`, the T/C is 104 % of control (dose: 50.0 mg/kg/injection, schedule: Q01DX009 (ip), vehicle: suspension in saline); 102 % of control (dose: 100.0 mg/kg/injection, schedule: Q01DX009 (ip), vehicle: suspension in saline); 97 % of control (dose: 200.0 mg/kg/injection, schedule: Q01DX009 (ip), vehicle: suspension in saline); 102 % of control (dose: 400.0 mg/kg/injection, schedule: Q01DX009 (ip), vehicle: suspension in saline).

Take `COc1cccc(/C=C/[N+](=O)[O-])c1OC`: the T/C was 117 % of control (dose: 35.0 mg/kg/injection, schedule: Q01DX009 (ip), vehicle: saline with Tween-80) and 104 % of control (dose: 70.0 mg/kg/injection, schedule: Q01DX009 (ip), vehicle: saline with Tween-80).

For `COc1cc2c(cc1OC)C1=CC(=O)N3CCCC34OS(=O)OC14CC2` (stereo not drawn), the T/C by setting is: under setting [8], 110 % of control; under setting [17], 103 % of control; under setting [18], 101 % of control.

As for `CCCCCCCCCCCCCC[n+]1ccccc1`, the T/C is, setting by setting: (dose: 0.06 mg/kg/injection, schedule: Q01DX009 (ip), vehicle: saline with Tween-80) 86 % of control and 89 % of control; (dose: 0.13 mg/kg/injection, schedule: Q01DX009 (ip), vehicle: saline with Tween-80) 90 % of control; (dose: 0.25 mg/kg/injection, schedule: Q01DX009 (ip), vehicle: saline with Tween-80) 86 % of control; (dose: 8.0 micrograms/kg/injection, schedule: Q01DX009 (ip), vehicle: saline) 88 % of control; (dose: 15.0 micrograms/kg/injection, schedule: Q01DX009 (ip), vehicle: saline) 91 % of control; (dose: 30.0 micrograms/kg/injection, schedule: Q01DX009 (ip), vehicle: saline) 94 % of control. Besides, the T/C (dose: 60.0 micrograms/kg/injection, schedule: Q01DX009 (ip), vehicle: saline) was 88 % of control.

As to `CN(C)CCCC(=O)O`, the T/C under setting [13] was 98 % of control, the T/C under setting [14] was 96 % of control and the T/C under setting [15] is 93 % of control.

As for `NC(=O)/C=C/C(=O)c1c(Cl)cccc1Cl`, the T/C runs as follows: (dose: 0.78 mg/kg/injection, schedule: Q01DX009 (ip), vehicle: saline with Tween-80) 103 % of control; under setting [9], 106 % of control; (dose: 3.12 mg/kg/injection, schedule: Q01DX009 (ip), vehicle: saline with Tween-80) 112 % of control.

`CC(C)(C)OC(=O)NC(CCC(N)=O)C(=O)ON1C(=O)CCC1=O` (stereo not drawn): the T/C is 100 % of control under setting [1], 93 % of control under setting [2], 97 % of control under setting [3] and 86 % of control under setting [4].

Regarding `O=P(OCc1ccccc1)(OCc1ccccc1)C(Nc1ccccc1)c1ccccc1` (stereo not drawn), the T/C under setting [7] was 97 % of control, the T/C under setting [8] is 90 % of control and the T/C under setting [17] was 90 % of control.

In the case of `N=C(N)SCCCN`, the T/C is 109 % of control (dose: 100.0 mg/kg/injection, schedule: Q04DX003 (ip), vehicle: saline); 93 % of control under setting [14]; 104 % of control (dose: 200.0 mg/kg/injection, schedule: Q04DX003 (ip), vehicle: saline).
